In series [1] the test system is B cells (CD20-positive CD3-negative cells) of human PBMC. Kind of series: B cell activation using human PBMC (CD69-positive signal, FACS). Type of series: cell-based. The settings on record: anti-IgM antibody 1 μg/mL / IL-4 3 ng/mL, 22 hours. On the procedure:
(§1) Measurement of B Cell Activation or T Cell Activation Using Human PBMC
(§2) A 10 mmol/L solution of the test compound in DMSO was dispensed into a 96-well plate (Nunc) and a 5× dilution series was prepared using DMSO. A 100× concentration test compound dilution solution was prepared by an additional 10× dilution with RPMI1640 medium (contained 10% HI-FBS, 1% penicillin). Human peripheral blood mononuclear cells (PBMC) were diluted with the medium to provide a density of 2×10^6 cells/mL. 396 μL of the cell suspension was added to a 96-well plate into which 4 μL of the 100× concentration test compound dilution solution or the solvent (10% DMSO) had already been introduced and incubation was performed for 10 minutes at 37° C. and 5% CO2. 10 μL of an anti-IgM antibody (Southern Biotech)/IL-4 (R & D Systems) solution or an anti-CD3/CD28 antibody bead suspension (Invitrogen Corporation) was added to a 96-well plate and 90 μL of the cell suspension prepared as described above was also added (final concentrations: anti-IgM antibody=1 μg/mL, IL-4=3 ng/mL, and anti-CD3/CD28 antibody beads=2×10^6 beads/mL). 10 μL of the medium was added to the unstimulated sample wells in place of these stimulating substances, and standing at 37° C. and 5% CO2 was again performed. Incubation was carried out for 16 hours in the case of the evaluation of T cell activation and for 22 hours in the case of the evaluation of B cell activation. 100 μL Cytofix Buffer (BD Biosciences) was added; holding for 15 minutes at 37° C. was performed; centrifugation for 10 minutes at 1500 rpm was carried out; and the supernatant was removed. 200 μL of Perm buffer II (BD Biosciences) at −20° C. was added; holding for 30 minutes on ice was performed; centrifugation for 10 minutes at 1500 rpm was carried out; and the supernatant was removed. 0.5 mL Stain buffer (BD Biosciences) was added and centrifugation was carried out for 10 minutes at 1500 rpm. 100 μL of a mixed antibody solution was added and incubation was performed for 30 minutes on ice in the dark. The antibody was the 10× dilution with Stain Buffer of the 1:1:1 mixture of PerCP-labeled anti-CD3 antibody (BD Biosciences), AF488-labeled anti-CD20 antibody (BD Biosciences), and PE-labeled anti-CD69 antibody (BD Biosciences). 0.4 mL Stain Buffer was added and the supernatant was removed. […] The CD69-positive signal (average fluorescence intensity) of the CD20-positive CD3-negative cells (B cells) or CD3-positive CD20-negative cells (T cells) was measured. After subtracting the value for the unstimulated sample, the % inhibition with reference to the value for the stimulated control sample was determined. The % inhibition was graphically plotted using Prism (ver. 5.01 J, GraphPad Software) and the IC50 value was determined.

For series [2], the system named is T cells (CD3-positive CD20-negative cells) of human PBMC. Briefly: T cell activation using human PBMC (CD69-positive signal, FACS). In kind it is cell-based. The following applies: anti-CD3/CD28 antibody beads, 16 hours. Here is the method:
as §1, §2

Another series concerns the target Human CYP2C8 (Homo sapiens (Human), UniProt P10632). Briefly: Inhibitory action on human CYP2C8. In kind it is in vitro ADME. On the procedure:
Measurement of the Inhibitory Activity on Drug-Metabolizing Enzymes (Inhibitory Action on Human CYP2C8 and Human CYP2C19)
The reaction was carried out in a 96-well plate. […] 100 μL of this reaction mixture and 50 μL of the test compound prepared as described above and the positive control solution prepared as described above were dispensed into each well and pre-incubation was carried out at 10 minutes for 37° C. The reaction was started by the addition of 50 μL NADPH solution (final concentration=1 mmol/L) and incubation was carried out for 30 minutes at 37° C.

A further series has as its system Human liver cells. Kind of series: Ability to reduce the mitochondrial membrane potential in cultured human hepatoma cells (JC-1). In kind it is cell-based. The settings on record: JC-1, exposure for 24 hours, read-out: Ability to lower the mitochondrial membrane potential (IC50 (μM)). From the text: Measurement of the Cytotoxicity and Ability to Reduce the Mitochondrial Membrane Potential in Cultured Human Hepatoma Cells
Tissue that maintains an aerobic equilibrium, e.g., the kidneys and heart, and tissue that is exposed to high drug concentrations and carries out drug metabolism, e.g., the liver, are known to be sensitive to mitochondrial dysfunction (Drug Discovery Today, 12 (17-18), 777-785, 2007). The reduction or extinction of the mitochondrial membrane potential by a drug is caused by the direct inhibition of the electron transport system, decoupling of electron transport from ATP synthase, or the opening of a mitochondrial membrane permeability transition pore. As a consequence, measurement of the mitochondrial membrane potential of liver cells can provide a parameter for hepatotoxicity.
Human liver cells were seeded into a collagen-coated 96-well plate at a cell density of 30,000 cells/well and incubation was carried out overnight in an incubator at 37° C. in 5% CO2-95% air. The cultured cells were stained for 1 hour with 5,5′,6,6′-tetrahydro-1,1′,3,3′-tetramethyl-benzamidazolocarbocyanine iodide (JC-1) followed by treatment with the test compound. The test compound was dissolved in DMSO and then diluted with the liquid culture medium Hepatocyte Culture Medium (HCM) and added to the cells. The test compound treatment concentrations were 0, 6.25, 12.5, 25, 50, 100, 200, and 400 μmol/L. After exposure to the test compound for 24 hours, measurement was performed with a SpectraMax plate reader (Molecular Devices, LLC) at an excitation wavelength of 485 nm and a fluorescence wavelength of 538 nm and an excitation wavelength of 544 nm and a fluorescence wavelength of 590 nm. The membrane potential was determined by the ratio between the 544 nm/590 nm measurement value and the 485 nm/538 nm measurement value. After this, the ATP concentration in the cells was measured using a Celltiter Glo luminescent assay kit (Promega Corporation) in order to evaluate the cell toxicity of the test compound. The cells were lysed by the assay buffer provided with the measurement kit and the concentration of the ATP released from the cells was measured using the luciferin-luciferase enzyme activity as the index. The emission was measured using a SpectraMax plate reader. […] The ability to lower the mitochondrial membrane potential of the test compounds and the cytotoxicity of the test compounds are given in Table 3 below.

Series [3] can be described thus: Stability in the human liver microsome. The settings on record: 0.5 mg/mL microsomes, NADPH, 15 minutes at 37° C.
Experimental: Evaluation of the Stability in the Rat and Human Liver Microsome
A 0.25 mmol/L solution was prepared by diluting the test compound (10 mmol/L DMSO solution, 5 μL) with an aqueous 50% acetonitrile solution (195 μL).
20 μL was collected immediately after the start and the reaction was stopped by the addition to 180 μL of acetonitrile that contained an internal standard (warfarin). 20 μL of this solution was stirred with 180 μL of an aqueous 50% acetonitrile solution on a filter plate for protein depletion followed by suction filtration, and the filtrate was used as the standard sample.
The previously indicated reaction solution was incubated for 15 minutes at 37° C., and 20 μL was then added to 180 μL cold acetonitrile (contained the internal standard warfarin) to stop the reaction. 20 μL of this was stirred with 180 μL of an aqueous 50% acetonitrile solution on a filter plate for protein depletion followed by suction filtration, and the filtrate was used as the standard sample.

Data on one compound can be found in patent publication US9879013B2, “Purinone derivative” (ONO PHARMACEUTICAL CO., LTD., priority 2010, dated 2018).

Chain of Human CYP2C8 (P10632 whole entry): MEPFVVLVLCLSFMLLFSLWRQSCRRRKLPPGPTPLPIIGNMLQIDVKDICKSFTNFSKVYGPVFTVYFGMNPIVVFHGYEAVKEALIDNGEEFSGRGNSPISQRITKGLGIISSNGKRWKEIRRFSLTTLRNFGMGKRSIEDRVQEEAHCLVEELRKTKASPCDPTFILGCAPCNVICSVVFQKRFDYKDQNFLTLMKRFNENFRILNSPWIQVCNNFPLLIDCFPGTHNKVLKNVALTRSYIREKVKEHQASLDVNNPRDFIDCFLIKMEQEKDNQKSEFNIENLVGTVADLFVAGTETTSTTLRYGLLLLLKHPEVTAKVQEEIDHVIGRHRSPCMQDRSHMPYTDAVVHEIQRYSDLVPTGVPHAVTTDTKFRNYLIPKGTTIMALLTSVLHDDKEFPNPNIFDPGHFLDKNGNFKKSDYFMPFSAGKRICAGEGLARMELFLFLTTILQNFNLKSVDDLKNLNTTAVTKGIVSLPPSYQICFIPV

As a reminder, the IC50 is the midpoint of a concentration-inhibition curve. On to `C=CC(=O)N1CC(n2c(=O)n(-c3ccc(Oc4ccccc4)cc3)c3c(N)ncnc32)C1` [Example 8, 9-(1-acryloyl-3-azetidinyl)-6-amino-7-(4-phenoxyphenyl)-7,9-dihydro-8H-purin-8-one], for which the concentration for half-maximal inhibition (IC50) is 0.021 µM in series [1], greater than 10 µM in series [2], greater than 10 µM on Human CYP2C8 and 324 µM with Human liver cells. For the same compound, the “Residual ratio (%) in the human liver microsome” value in series [3] is reported as 87.0%.
